Columns and labels:
Type in all cases: in vivo
[1] = tested on: Plutella xylostella (Diamond Back Moth); assay: Plutella xylostella larval test on artificial diet; details: 144 h, 200 ppm (concentration in well 18 ppm), L2 larvae, larval mortality and growth regulation after 6 days
Excerpt: (§1) This Example illustrates the insecticidal and acaricidal properties of compounds of formula (I).

[2] = tested on: Diabrotica balteata (Corn Root Worm); assay: Diabrotica balteata larval test on artificial diet; details: 120 h, 200 ppm (concentration in well 18 ppm), L2 larvae, larval mortality and growth regulation after 5 days
Excerpt: as §1

[3] = tested on: Tetranychus urticae (Two-Spotted Spider Mite); assay: Tetranychus urticae leaf disc spray test; details: foliar, 192 h, 200 ppm spray on bean leaf discs, mixed ages, egg, larval and adult mortality 8 days later
Excerpt: as §1

[4] = tested on: Spodoptera littoralis (Egyptian Cotton Leafworm); assay: Spodoptera littoralis leaf disc spray test; details: foliar, 72 h, 200 ppm spray on cotton leaf discs, mortality, feeding behavior, growth regulation 3 days after treatment
Experimental: This Example illustrates the insecticidal and acaricidal properties of compounds of formula (I). Tests were performed as follows:

[5] = tested on: Thrips tabaci (Onion Thrips); assay: Thrips tabaci leaf disc spray test; details: foliar, 168 h, 200 ppm spray on sunflower leaf discs, mixed ages, mortality after 7 days
Excerpt: as §1

[6] = tested on: Heliothis virescens (Tobacco Budworm); assay: Heliothis virescens egg test on artificial diet; details: 96 h, 200 ppm (concentration in well 18 ppm), eggs 0-24 h old on artificial diet, egg mortality, larval mortality, growth regulation after 4 days
Excerpt: as §1

Measured: pest or weed control at 200 ppm

CCc1cc(C2=NOC(c3cc(Cl)cc(Cl)c3)(C(F)(F)F)C2)ccc1C(=O)NC1CSC1 (stereo not shown) [Compound B69, 4-[5-(3,5-dichlorophenyl)-5-trifluoromethyl-4H-isoxazol-3-yl]-2-ethyl-N-(thietan-3-yl)benzamide]
≥ 80%: all assays above

Cc1cc(C2=NOC(c3cc(C(F)(F)F)n(C)c3)(C(F)(F)F)C2)ccc1C(=O)NC1CSC1 (stereo not shown) [Compound C006, 2-methyl-4-[5-[1-methyl-5-(trifluoromethyl)pyrrol-3-yl]-5-(trifluoromethyl)-4H-isoxazol-3-yl]-N-(thietan-3-yl)benzamide]
not listed: [6]
≥ 80%: all other assays above

Cc1cc(C2=NO[C@@](c3cc(Cl)cc(Cl)c3)(C(F)(F)F)C2)cnc1C(=O)N[C@H]1C[S@@+]([O-])C1 [Compound C16, 5-[(5S)-5-(3,5-dichlorophenyl)-5-(trifluoromethyl)-4H-isoxazol-3-yl]-3-methyl-N-(1-oxidothietan-1-ium-3-yl)pyridine-2-carboxamide]
≥ 80%: all assays above

Cc1cc(C2=NOC(c3cc(Cl)cc(Cl)c3)(C(F)(F)F)C2)ccc1C(=O)N1CC2(CSC2)C1 (stereo not shown) [Compound C013, [4-[5-(3,5-dichlorophenyl)-5-(trifluoromethyl)-4H-isoxazol-3-yl]-2-methyl-phenyl]-(6-thia-2-azaspiro[3.3]heptan-2-yl)methanone]
≥ 80%: [1] | [2] | [3] | [5]

Cc1cc(C2=NO[C@@](c3cc(Cl)c(Cl)c(Cl)c3)(C(F)(F)F)C2)ccc1C(=O)N[C@H]1C[S@@+]([O-])C1 [Compound C17, 2-methyl-N-(1-oxothietan-3-yl)-4-[(5S)-5-(3,4,5-trichlorophenyl)-5-(trifluoromethyl)-4H-isoxazol-3-yl]benzamide]
≥ 80%: all assays above

Cc1cc(C2=NOC(c3c[nH]c(C(F)(F)F)c3)(C(F)(F)F)C2)ccc1C(=O)NC1CS(=O)(=O)C1 (stereo not shown) [Compound C008, N-(1,1-dioxothietan-3-yl)-2-methyl-4-[5-(trifluoromethyl)-5-[5-(trifluoromethyl)-1H-pyrrol-3-yl]-4H-isoxazol-3-yl]benzamide]
≥ 80%: [3] | [5] | [6]

O=C(NC1CSC1)c1ccc(C2=NOC(c3cc(Cl)cc(Cl)c3)(C(F)(F)F)C2)cc1[N+](=O)[O-] (stereo not shown) [Compound B56, 4-[5-(3,5-dichlorophenyl)-5-trifluoromethyl-4H-isoxazol-3-yl]-2-nitro-N-(thietan-3-yl)benzamide]
≥ 80%: all assays above

Cc1cc(C2=NO[C@@](c3cc(Cl)cc(Cl)c3)(C(F)(F)F)C2)ccc1C(=O)NCC1CS(=O)(=O)C1 [Compound C20, 4-[(5S)-5-(3,5-dichlorophenyl)-5-(trifluoromethyl)-4H-isoxazol-3-yl]-N-[(1,1-dioxothietan-3-yl)methyl]-2-methyl-benzamide]
≥ 80%: all assays above

Cc1cc(C2=NOC(c3c[nH]c(C(F)(F)F)c3)(C(F)(F)F)C2)ccc1C(=O)NC1CSC1 (stereo not shown) [Compound C010, 2-methyl-N-(thietan-3-yl)-4-[5-(trifluoromethyl)-5-[5-(trifluoromethyl)-1H-pyrrol-3-yl]-4H-isoxazol-3-yl]benzamide]
≥ 80%: [3] | [5]

Cc1cc(C2=NOC(c3c[nH]c(C(F)(F)F)c3)(C(F)(F)F)C2)ccc1C(=O)NC1C[S+]([O-])C1 (stereo not shown) [Compound C009, 2-methyl-N-(1-oxothietan-3-yl)-4-[5-(trifluoromethyl)-5-[5-(trifluoromethyl)-1H-pyrrol-3-yl]-4H-isoxazol-3-yl]benzamide]
≥ 80%: [1] | [3] | [5]

Cc1cc(C2=NOC(c3cc(C(C)(C)C)c[nH]3)(C(F)(F)F)C2)ccc1C(=O)NC1CSC1 (stereo not shown) [Compound C003, 4-[5-(4-tert-butyl-1H-pyrrol-2-yl)-5-(trifluoromethyl)-4H-isoxazol-3-yl]-2-methyl-N-(thietan-3-yl)benzamide]
≥ 80%: [6]

Cc1cc(C2=[N+]([O-])OC(c3cc(Cl)cc(Cl)c3)(C(F)(F)F)C2)ccc1C(=O)NC1CSC1 (stereo not shown) [Compound C011, 4-[5-(3,5-dichlorophenyl)-2-oxido-5-(trifluoromethyl)-4H-isoxazol-2-ium-3-yl]-2-methyl-N-(thietan-3-yl)benzamide]
≥ 80%: [2] | [4] | [6]

Cc1cc(C2=NO[C@@](c3cc(Cl)c(F)c(Cl)c3)(C(F)(F)F)C2)ccc1C(=O)NC1CS(=O)(=O)C1 [Compound C18, 4-[(5S)-5-(3,5-dichloro-4-fluoro-phenyl)-5-(trifluoromethyl)-4H-isoxazol-3-yl]-N-(1,1-dioxothietan-3-yl)-2-methyl-benzamide]
≥ 80%: all assays above

Cc1cc(C2=NOC(c3cn(CC(F)F)cc3C(C)(C)C)(C(F)(F)F)C2)ccc1C(=O)NC1CSC1 (stereo not shown) [Compound C005, 4-[5-[4-tert-butyl-1-(2,2-difluoroethyl)pyrrol-3-yl]-5-(trifluoromethyl)-4H-isoxazol-3-yl]-2-methyl-N-(thietan-3-yl)benzamide]
not listed: [5]
≥ 80%: all other assays above

O=C(NC1CSC1)c1ccc(C2=NOC(c3cc(Cl)cc(Cl)c3)(C(F)(F)F)C2)c([N+](=O)[O-])c1 (stereo not shown) [Compound B55, 4-[5-(3,5-dichlorophenyl)-5-trifluoromethyl-4H-isoxazol-3-yl]-3-nitro-N-(thietan-3-yl)benzamide]
≥ 80%: [1] | [2] | [4] | [6]

Cc1cc(C2=[N+]([O-])OC(c3cc(Cl)cc(Cl)c3)(C(F)(F)F)C2)ccc1C(=O)NC1CS(=O)(=O)C1 (stereo not shown) [Compound C012, 4-[5-(3,5-dichlorophenyl)-2-oxido-5-(trifluoromethyl)-4H-isoxazol-2-ium-3-yl]-N-(1,1-dioxothietan-3-yl)-2-methyl-benzamide]
not listed: [5]
≥ 80%: all other assays above

Cc1cc(C2=NOC(c3cc(Cl)cc(Cl)c3)(C(F)(F)F)C2)ccc1C(=O)NCC1CSC1 (stereo not shown) [Compound A130, 4-[5-(3,5-dichlorophenyl)-5-(trifluoromethyl)-4H-isoxazol-3-yl]-2-methyl-N-(thietan-3-ylmethyl)benzamide]
≥ 80%: all assays above

Nc1cc(C2=NOC(c3cc(Cl)cc(Cl)c3)(C(F)(F)F)C2)ccc1C(=O)NC1CSC1 (stereo not shown) [Compound B57, 4-[5-(3,5-dichlorophenyl)-5-trifluoromethyl-4H-isoxazol-3-yl]-2-amino-N-(thietan-3-yl)benzamide]
not listed: [5]
≥ 80%: all other assays above

— patent US9247740B2, “Isoxazoline derivatives as insecticidal compounds” (Syngenta Participations AG, priority 2011, dated 2016)
